Read-outs that look alike come from different tables or passages of the source.
Key:
[1] = system: Phospho-STAT5 (P-STAT5) levels in HEL cells (Jak2V617F); test: Western blot of phospho-STAT5 in HEL cells; format: cell-based, human; settings: for IC50: mean ± SD
[2] = molecular target: Jak2 (Homo sapiens, UniProt O60674); test: Jak2 in vitro kinase assay; format: biochemical; settings: Caliper versus literature (Figure S5B)
[3] = system: HEL cells; test: Cell proliferation assay; format: cell-based, human
[4] = system: P-STAT5 in UKE-1 cells (Jak2V617F); test: Western blot of phospho-STAT5 in UKE-1 cells; format: cell-based; settings: 2.5 μM, 3 hrs
[5] = system: Jak2V617F in HEK-V617F-STAT-Rep. cells; test: pSTAT-ZsGreen reporter gene assay; format: cell-based; settings: 24 h, read-out: IC50 values, STAT-reporter gene assay
[6] = system: γ2A-FRT-TI-Jak2V617F/STAT3-YFP cells; test: Nuclei size by confocal imaging and Cell Profiler; format: cell-based; settings: 24 hrs; Cell Profiler
[7] = system: Jak2V617F phosphorylation (P-Jak2) in HEL cells; test: Western blot of phospho-Jak2 in HEL cells; format: cell-based, human; settings: 0.5, 1 or 5 μM, 3 hrs
[8] = system: Jak2V617F in γ2A-FRT-TI-Jak2V617F/STAT3-YFP cells; test: STAT3-YFP translocation assay; format: cell-based; settings: read-out: IC50 values, STAT3-YFP translocation assay
[9] = system: P-STAT5 in BA/F3-EpoR-Jak2V617F cells; test: Western blot of phospho-STAT5 in BA/F3-EpoR-Jak2V617F cells; format: cell-based, murine; settings: 2.5 μM, 3 hrs

Sequence of Jak2 (O60674 whole entry): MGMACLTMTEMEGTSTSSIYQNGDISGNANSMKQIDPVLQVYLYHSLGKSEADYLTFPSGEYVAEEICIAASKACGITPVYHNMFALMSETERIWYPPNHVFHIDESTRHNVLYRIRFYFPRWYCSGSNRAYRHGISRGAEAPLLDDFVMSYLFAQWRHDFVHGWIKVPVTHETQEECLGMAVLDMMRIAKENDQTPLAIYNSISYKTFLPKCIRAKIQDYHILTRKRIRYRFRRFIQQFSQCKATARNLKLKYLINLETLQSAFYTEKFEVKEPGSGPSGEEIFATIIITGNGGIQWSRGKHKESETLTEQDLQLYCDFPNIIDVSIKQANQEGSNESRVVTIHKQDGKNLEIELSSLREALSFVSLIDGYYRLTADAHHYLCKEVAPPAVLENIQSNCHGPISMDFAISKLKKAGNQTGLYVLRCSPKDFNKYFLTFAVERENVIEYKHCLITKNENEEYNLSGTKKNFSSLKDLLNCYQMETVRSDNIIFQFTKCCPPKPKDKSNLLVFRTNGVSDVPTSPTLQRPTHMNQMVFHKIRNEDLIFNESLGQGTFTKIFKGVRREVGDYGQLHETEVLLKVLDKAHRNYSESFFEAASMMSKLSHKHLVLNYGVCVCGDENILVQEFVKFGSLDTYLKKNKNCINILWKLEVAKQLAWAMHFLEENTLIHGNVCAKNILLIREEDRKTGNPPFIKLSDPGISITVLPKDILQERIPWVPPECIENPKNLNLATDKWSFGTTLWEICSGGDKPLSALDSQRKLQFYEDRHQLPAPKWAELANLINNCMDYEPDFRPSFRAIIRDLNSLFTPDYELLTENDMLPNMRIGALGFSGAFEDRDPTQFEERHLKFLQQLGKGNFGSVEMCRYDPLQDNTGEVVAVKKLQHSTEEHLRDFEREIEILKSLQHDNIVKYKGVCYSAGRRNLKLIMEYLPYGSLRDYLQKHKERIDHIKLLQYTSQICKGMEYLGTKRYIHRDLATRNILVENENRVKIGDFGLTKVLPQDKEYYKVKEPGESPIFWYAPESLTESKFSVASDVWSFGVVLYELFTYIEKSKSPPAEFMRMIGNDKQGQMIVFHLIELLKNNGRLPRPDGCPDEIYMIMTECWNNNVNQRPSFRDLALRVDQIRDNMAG

- IC50 ([1]; Homo sapiens, HEL, read-out: IC50 values, WB (P-STAT5), HEL cells): ~600 nM
- IC50 ([1]; read-out: IC50 values, WB (P-STAT5), HEL cells): 633 ± 90 nM
- divergence between own and published in vitro kinase assay IC50 [2]: greater than 10 fold
- IC50 [8]: 459 ± 126 nM
Structure (SMILES): N#CCNC(=O)c1ccc(-c2ccnc(Nc3ccc(N4CCOCC4)cc3)n2)cc1 [CYT387]
- effect on phosphorylation of STAT5 (Western blot) ([1]; HEL cells, 0.5, 1 or 5 μM, 3 hrs): showed the same effects but were less efficient
- effect on proliferation of HEL cells ([3]; 0.3 or 1 μM, 72 hrs): showed the same effects but were less efficient
- IC50 ([3]; Homo sapiens, HEL, 72 h, read-out: IC50 values, Proliferation assay): 1180 ± 413 nM
- effect on phosphorylation of STAT5 (Western blot) [4]: efficiently decreased
- IC50 [5]: 794 ± 7 nM
- concentration at which nuclei size increases [6]: did not have this effect
- effect on phosphorylation of Jak2 [7]: increased phosphorylation of Jak2
- effect on phosphorylation of STAT5 (Western blot) [9]: efficiently decreased

From PMC3822589 (Journal of Cellular and Molecular Medicine, 2013)
